Assay results published in publication PMC7096397, “Improving the drug-likeness of inspiring natural products - evaluation of the antiparasitic activity against Trypanosoma cruzi through semi-synthetic and simplified analogues of licarin A” (Scientific Reports, 2020).
Entries after “also recorded” stand apart in the source; their conditions may differ. Read-outs that look alike come from different tables or passages of the source.

Tests used:
[1] = test system: T. cruzi (Y strain) trypomastigotes; experiment: Anti-trypomastigote assay (resazurin viability); assay type: cell-based, Trypanosoma cruzi; conditions: Trypanosoma cruzi, read-out: IC50 trypo
Procedure: (§1) The cells and parasites were kept at 37 °C in a humidified atmosphere containing 5% CO2.
Benznidazole was used as the standard drug. The optical density was determined in FilterMax F5 (Molecular Devices) at 570 nm[38].
(§2) IC50 and CC50 values were calculated using a sigmoid dose-response curves in Graph–Pad Prism 5.0 software (GraphPad Software - San Diego, CA, USA). For the mechanism of action studies one-way ANOVA (Turkey’s Multiple Comparison test) was used for significance (p < 0.05). The assays were repeated at least twice and the samples were tested in duplicate.

[2] = test system: T. cruzi intracellular amastigotes; experiment: Anti-amastigote assay in infected peritoneal macrophages (infection index); assay type: cell-based, Trypanosoma cruzi; conditions: Trypanosoma cruzi, Peritoneal macrophage, in Mus musculus, 48 h, read-out: IC50 Ama
Procedure: as §1
The cells were plated on a 16-well chamber slide – NUNC (Thermo Fisher Scientific) at 1 × 10^5 cells/well and incubated for 24 h at 37 °C in a 5% CO2 humidified incubator. […] Tested compounds were subsequently incubated with infected macrophages for 48 h at 37 °C (5% CO2 humidified incubator) in different nontoxic concentrations. Benznidazole was used as standard drug. At the end of the assay, slides were fixed with MeOH and stained with Giemsa, counted under a light microscope (EVOS M5000, Thermo, USA) and IC50 values were determined by the infection index.
as §2

[3] = Cytotoxicity against mammalian cells (MTT); assay type: cell-based, Murine; conditions: mouse, NCTC clone L929 cells
Procedure: Rhesus monkey kidney cells (LLC-MK2-ATCC CCL 7) were used for the maintenance of trypomastigotes of T. cruzi (Y strain) using RPMI-1640 medium supplemented with 2% fetal bovine serum (FBS). The cells and parasites were kept at 37 °C in a humidified atmosphere containing 5% CO2. Peritoneal macrophages, used in the experiments of anti-amastigote assay, were obtained by washing the peritoneal cavity of BALB/c mice, with RPMI-1640 medium supplemented with 10% FBS and kept at 37 °C in a 5% CO2 humidified incubator. Murine conjunctive cells (NCTC clone 929, ATCC) and LLC-MK2 were kept in RPMI-1640 supplemented with 10% FBS at the same conditions described above.
NCTC cells-clone L929 (6 × 10^4 cells/well) were seeded and incubated with tested compounds (200–1.56 µM) for 48 h at 37 °C in a 5% CO2 humidified incubator. Cytotoxic concentration (CC50) was determined by MTT assay. Optical density was determined in FilterMax F5 (Molecular Devices) at 570 nm. Selectivity Index (SI) was determined using the following ratio: CC50 against NCTC cells/IC50 against parasites.
as §2

[4] = PAMPA intestinal model (GIT); assay type: in vitro ADME
Procedure: Intestinal permeability of tested compounds was estimated applying the PAMPA model previously developed and validated. Briefly, stock solutions were prepared in dimethyl sulfoxide (DMSO) at the concentrations of 10 mM and then diluted with Tris buffer to give the final concentration donor solution at 300 µM and 5% DMSO. The assay procedure was initiated by filling each well of the microtiter plate (MultiScreen, catalogue no. MATRNPS50, Millipore Corporation, Bedford, MA, USA) with 300 μL of each donor drug solution. Carefully, and avoiding the pipette tip contact with the filter, the hydrophobic filter (0.45 μm) of each acceptor well of the 96-well microfilter plate (MultiScreen-IP, catalogue no. MAIPNTR10, Millipore Corporation, Bedford, MA, USA) was adsorbed with 6 μL of the artificial lipid solution which was composed of 2% of L-α-phosphatidylcholine from soybean dissolved, by sonication, in n-dodecane. Immediately after this application, 150 μL of Tris buffer containing 5% DMSO was added to the receiving well. The receiving well was mounted on the donor plate, keeping the underside of the membrane in contact with the donor solution. The assembled donor–acceptor plates were incubated under constant stirring (3 g) at 25 °C for approximately 16 h. Subsequently, the quantity of each compound presented at the receptor solution (150 μL) was determined by UV/VIS spectrophotometrically.

PAMPA-BBB model = assay type: in vitro ADME
Procedure: The methodology herein applied was similar to that described in the previous section, however with the purpose of assessing the permeability of the compounds through the blood brain barrier (BBB). Thus, stock solutions (10 mM) of each test compound were prepared in DMSO and diluted with phosphate buffered saline (PBS) at pH 7.4. The final concentration of donor solutions was 300 μM and DMSO of 5%. Artificial membrane lipid solutions were prepared daily by dissolving, in n-dodecane, the porcine brain lipid extracted as described[40] at the final concentration of 2% (m/v). PAMPA procedure was similar to that described in the previous section although, in PAMPA-BBB, the donor and acceptor solutions were prepared using phosphate buffer saline (PBS) at pH 7.4 and the Papp was obtained through the equation previously reported.

T. cruzi trypomastigotes [5] = experiment: Plasma membrane permeability, Sytox Green probe; assay type: cell-based, Trypanosoma cruzi; conditions: at IC50, up to 120 min, vs untreated parasites
Procedure: The action of compounds 1d, 1e, 3d and 4a in the cell membrane permeability were evaluated in T. cruzi trypomastigotes (2 × 10^6/well) seeded in 96-well black polystyrene microplates. Parasites were washed and incubated in the dark with 1 μM SYTOX Green probe (Molecular Probes) in HANKS’ balanced salts solution (HBSS; Sigma-Aldrich) supplemented with 10 mM D-Glucose (HBSS + Glu) in 96-well black polystyrene microplates[43],[44]. […] The maximum permeabilization was obtained with the addiction of 0.5% Triton X-100. Fluorescence intensities were determined using a fluorimetric microplate reader (FilterMax F5 Multi-Mode Microplate Reader-Molecular Devices) with excitation and emission wavelengths of 485 and 520 nm, respectively. The following internal controls were used in the evaluation: i) the background fluorescence of the compound at the respective wavelengths, ii) the possible interference of DMSO.

T. cruzi trypomastigotes [6] = experiment: Reactive oxygen species (ROS) generation, H2DCFDA probe; assay type: cell-based, Trypanosoma cruzi; conditions: for ROS generation: at IC50, 1 h of treatment; for ROS levels: at IC50, 2 h of treatment
Procedure: After, H2DCFDA probe (Molecular Probes) was added (5 µM) and incubated by 15 min[44]. The fluorescence intensity was measure using a fluorimetric microplate reader (FilterMax F5 Multi-Mode, Molecular Devices) with excitation and emission wavelengths of 485 and 520 nm, respectively. Azide (10 mM) was used as positive control and untreated parasites were used as negative control.

T. cruzi trypomastigotes [7] = experiment: ATP generation (luciferin/luciferase); assay type: cell-based, Trypanosoma cruzi; conditions: at IC50, 2 h of incubation
Procedure: Untreated parasites and treated with the mitochondrial uncoupler CCCP (carbonyl cyanide m-chlorophenylhydrazone - Sigma) at 100 µM, were used as positive and negative controls, respectively. […] Luminescence intensity was measured using a luminometer (FilterMax F5 Multi-Mode, Molecular Devices) and the amount of ATP was calculated from an ATP standard curve.

T. cruzi trypomastigotes [8] = experiment: Mitochondrial membrane potential, JC-1 flow cytometry; assay type: cell-based, Trypanosoma cruzi; conditions: at IC50, 2 h
Procedure: The ΔΨm were analyzed by flow cytometry (Attune NxT flow cytometer - ThermoFisher) with the probe 5,5′,6,6′-tetrachloro-1,1′,3,3′-tetraethylbenzimidazole carbocyanide iodide (JC-1, ThermoFisher). The ratio between red/green fluorescence intensities (BL-2/BL-1; 590 nm/530 nm) were calculated[45],[46]. […] The parasites were incubated in the dark for 10 min at 37 °C and washed in HBSS + Glu to eliminate the non-internalized dye. As internal controls of the assay were used: (i) non-treated cells and (ii) trypomastigotes treated with 100 μM CCCP.

[9] = PAMPA intestinal model (GIT); assay type: in vitro ADME; conditions: read-out: plasma protein binding percentage
[10] = T. cruzi trypomastigotes, 24 h incubation, resazurin
[11] = intracellular amastigotes in BALB/c peritoneal macrophages
[12] = PAMPA intestinal model, 300 µM donor, Tris buffer, 25 °C, 16 h, read-out: Papp GIT
[13] = PAMPA-BBB model, 300 µM donor, PBS pH 7.4, read-out: Papp BBB

Structure (SMILES)	IC50 [1, 10] [µM]	IC50 [2, 11] [µM]	CC50 at 48 h [3] [µM]	Papp at 16 h, 300 µM ([4]; PAMPA) [×10⁻⁶ cm/s]	Papp at 16 h, 300 µM (PAMPA-BBB model; PAMPA, pH 7.4) [×10⁻⁶ cm/s]	Sytox Green fluorescence levels (plasma membrane permeability) (T. cruzi trypomastigotes [5])	ROS generation (T. cruzi trypomastigotes [6])	ROS levels (T. cruzi trypomastigotes [6])	ATP levels (T. cruzi trypomastigotes [7])	mitochondrial membrane potential (T. cruzi trypomastigotes [8])	IC50 ([1]; 24 h) [µM]	IC50 [2] [µM]	Papp at 16 h, 300 µM [4, 12] [×10⁻⁶ cm/s]	Papp at 16 h, 300 µM (PAMPA-BBB model; [13]) [×10⁻⁶ cm/s]	fraction unbound at 16 h, 300 µM [9]
COc1cc(CO)ccc1OC(C)=O [3b, [4-(hydroxymethyl)-2-methoxy-phenyl] acetate]	5.1 ± 0.7	> 100	45.8 ± 14.9	5.07	3.67	no changes in the fluorescence levels	increased ROS generation	drop of the levels	increased ATP production	mitochondrial hyperpolarization, but with no statistical significance					
C=CCc1cc(CO)cc(OC)c1O [3d, 2-allyl-4-(hydroxymethyl)-6-methoxy-phenol]	> 100	> 100	> 200	3.47	3.47		increased the reactive oxygen species (ROS) levels			induced hyperpolarization of mitochondrial membrane potential					
C=CCc1ccc(O)c(OC)c1 [compound 5, eugenol]			> 200								> 100	> 100	14.4	3.98	< 0.1
C/C=C/c1ccc(OC)c(OC)c1 [4a, 1,2-dimethoxy-4-[(E)-prop-1-enyl]benzene]			> 200			no changes in the fluorescence levels	increased the reactive oxygen species (ROS) levels; also recorded: increased ROS generation	drop of the levels	increased ATP production		8.8 ± 2	> 100	15.9	1.29	< 0.1
C=CCc1cc([C@H]2Oc3c(OC)cc(/C=C/C)cc3[C@@H]2C)cc(OC)c1O [1d, 2-allyl-6-methoxy-4-[(2S,3 S)-7-methoxy-3-methyl-5-[(E)-prop-1-enyl]-2,3-dihydrobenzofuran-2-yl]phenol]	5 ± 0.8	> 100	45.5 ± 16.7	0.38	0.28	no changes in the fluorescence levels	increased the reactive oxygen species (ROS) levels; also recorded: increased ROS generation	drop of the levels	increased ATP production	induced hyperpolarization of mitochondrial membrane potential; also recorded: mitochondrial hyperpolarization, but with no statistical significance					
C/C=C/c1cc(OC)c2c(c1)[C@H](C)[C@@H](c1cc(OC)c3oc(C)cc3c1)O2 [1e, 7-methoxy-5-[(2 S,3 S)-7-methoxy-3-methyl-5-[(E)-prop-1-enyl]-2,3-dihydrobenzofuran-2-yl]-2-methyl-benzofuran]	10.5 ± 5.7	> 100	> 200	0.55	0.23	exception of 1e after 120 min	increased the reactive oxygen species (ROS) levels; also recorded: increased ROS generation	drop of the levels	no significant alterations in ATP levels	induced hyperpolarization of mitochondrial membrane potential; also recorded: mitochondrial hyperpolarization, but with no statistical significance					
COc1ccc(C=O)cc1OC [2a, 3,4-dimethoxybenzaldehyde]			> 200								> 100	> 100	20.7	7	< 0.1
